# Reference: article PMC9731866, “Structures of a constitutively active mutant of human IDH3 reveal new insights into the mechanisms of allosteric activation and the catalytic reaction” (The Journal of Biological Chemistry, 2022)
# What was measured:
# Type in all cases: binding
# [1] = biological target: T1, αβ heterodimer of HsIDH3 (mutant form αMβ) (Homo sapiens, UniProt O43837+P50213, P50213:Q166A); assay: biolayer interferometry, biotinylated protein on streptavidin sensor
# T1 construct: gene IDH3A; coexpressed alpha and beta-TEV-His6 (pQlinkN), E. coli BL21(DE3) Codon-Plus, His6 tag cleaved with TEV; 1:1 heterodimer, mutant is heterotetramer (αMβ)2 of 131-149 kDa
# T1 sequence (O43837 35-385 limits assumed, one chain of several): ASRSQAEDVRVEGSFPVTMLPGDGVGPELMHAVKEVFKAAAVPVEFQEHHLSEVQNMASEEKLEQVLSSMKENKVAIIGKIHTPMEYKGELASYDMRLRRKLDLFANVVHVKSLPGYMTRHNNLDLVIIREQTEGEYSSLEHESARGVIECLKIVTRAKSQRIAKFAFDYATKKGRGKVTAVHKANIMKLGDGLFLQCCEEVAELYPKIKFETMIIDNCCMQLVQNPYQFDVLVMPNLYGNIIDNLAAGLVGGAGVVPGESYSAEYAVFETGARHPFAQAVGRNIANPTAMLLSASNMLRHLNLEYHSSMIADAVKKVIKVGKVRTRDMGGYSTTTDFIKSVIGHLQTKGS
# [2] = biological target: T1, αβ heterodimer of HsIDH3 (mutant form αMβ); assay: X-ray crystal structure, […] Å; settings: Mg2+ at active site; ADP at pseudo-allosteric site of beta subunit
# [3] = biological target: T2, αγ heterodimer of HsIDH3 (mutant form αMγ) (Homo sapiens, UniProt P50213+P51553, P50213:Q166A); assay: X-ray crystal structure, […] Å; settings: allosteric site of gamma subunit
# T2 construct: gene IDH3A; coexpressed alpha and gamma-TEV-His6 (pQlinkN), E. coli BL21(DE3) Codon-Plus, His6 tag cleaved with TEV; 1:1 heterodimer, mutant is heterotetramer (αMγ)2 of 131-149 kDa
# T2 sequence (P50213 28-366 Q166A): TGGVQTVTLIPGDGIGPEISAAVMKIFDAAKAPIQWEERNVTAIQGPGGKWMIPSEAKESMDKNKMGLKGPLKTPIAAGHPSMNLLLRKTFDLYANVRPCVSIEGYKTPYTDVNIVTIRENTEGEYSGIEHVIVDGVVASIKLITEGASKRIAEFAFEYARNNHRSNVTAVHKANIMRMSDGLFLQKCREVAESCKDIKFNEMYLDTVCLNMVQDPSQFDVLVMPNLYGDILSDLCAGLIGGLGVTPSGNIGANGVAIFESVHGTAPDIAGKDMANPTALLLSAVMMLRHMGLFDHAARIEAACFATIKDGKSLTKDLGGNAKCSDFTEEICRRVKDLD
# T2 sequence (P51553 40-393): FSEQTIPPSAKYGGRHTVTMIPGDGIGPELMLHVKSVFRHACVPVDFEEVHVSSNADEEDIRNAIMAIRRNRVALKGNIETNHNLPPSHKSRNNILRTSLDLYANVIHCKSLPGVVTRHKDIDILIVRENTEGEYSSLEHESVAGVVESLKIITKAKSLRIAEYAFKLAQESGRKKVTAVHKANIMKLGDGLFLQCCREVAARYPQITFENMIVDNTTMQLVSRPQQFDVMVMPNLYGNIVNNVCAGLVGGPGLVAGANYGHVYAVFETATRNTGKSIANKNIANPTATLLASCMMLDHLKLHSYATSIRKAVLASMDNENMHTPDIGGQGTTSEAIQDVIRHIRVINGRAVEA
Compound,Kd [1],"X-ray crystal structure, 2.70 Å [2]","X-ray crystal structure, 2.50 Å [3]"
Nc1ncnc2c1ncn2[C@@H]1O[C@H](COP(=O)(O)OP(=O)(O)O)[C@@H](O)[C@H]1O [ADP],522 ± 10 µM,an ADP bound at the pseudo-allosteric site in the β subunit,–
O=C(O)CC(O)(CC(=O)O)C(=O)O [CIT],–,–,there is a CIT bound at the allosteric site in the γ subunit
